Reference: patent publication US10421756B2, “Heterobicyclic N-aminophenyl-amides as inhibitors of histone deacetylase” (Rodin Therapeutics, Inc., priority 2015, dated 2019)

How the values were obtained:
Format in all cases: binding
HDAC1 = HDAC1 (Homo sapiens (Human), UniProt Q13547); assay: Reporter displacement assay (HDAC1); conditions: for Kd: reporter probe displacement, Cheng Prusoff
Protocol: [The procedure below names another target; the source lists this target under the same test.] (§1) HDAC2 containing a C-terminal HIS-Tag (Proteros) and fluorescently-labeled anti-HIS-antibody are diluted in one vial in assay buffer 50 mM Tris, pH 8.0, 1 mM DTT, 150 mM NaCl, and 0.01% Tween20. Components are pre-incubated for 30 min, then a small volume of reporter probe (Proteros) is added from a highly concentrated stock and incubation is continued for another 30 min.
(§2) Ten μl/well of pre-formed complex are transferred into 384 well assay plates (Corning). Compounds to be profiled are serially diluted from […] in DMSO and 60 nl are added to assay plates by pintool transfer (CybiWell, Cybio).
For Kd determination, percent probe displacement values are calculated for each compound concentration and plotted against the compound concentration. […] Since the reporter probe is used at a concentration reflecting its own Kd value, compound Kd values can be calculated according to the Cheng Prusoff equation.

HDAC2 [1] = target: T1, HDAC2 (Homo sapiens (Human), UniProt Q92769); assay: Reporter displacement assay (HDAC2)
T1 sequence (Q92769 whole entry): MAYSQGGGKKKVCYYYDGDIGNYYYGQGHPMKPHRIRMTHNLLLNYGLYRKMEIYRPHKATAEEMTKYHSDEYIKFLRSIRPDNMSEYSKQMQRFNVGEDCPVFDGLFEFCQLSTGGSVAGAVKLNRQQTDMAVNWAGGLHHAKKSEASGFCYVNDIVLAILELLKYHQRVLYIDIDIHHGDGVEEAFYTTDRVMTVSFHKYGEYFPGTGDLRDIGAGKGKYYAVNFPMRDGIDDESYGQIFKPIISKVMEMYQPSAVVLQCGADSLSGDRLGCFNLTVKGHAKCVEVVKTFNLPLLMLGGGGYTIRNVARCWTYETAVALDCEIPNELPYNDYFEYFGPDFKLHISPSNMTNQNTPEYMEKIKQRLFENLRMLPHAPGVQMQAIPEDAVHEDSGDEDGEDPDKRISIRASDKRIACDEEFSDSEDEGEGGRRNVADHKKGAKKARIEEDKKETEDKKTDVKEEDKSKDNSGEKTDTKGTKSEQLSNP

HDAC2 [2] = target: T1, HDAC2; assay: Reporter displacement assay (HDAC2); conditions: reporter probe displacement, Cheng Prusoff
Protocol: as §1, with “min. Final concentrations after adding the reporter probe amount to 20 nM HDAC2, 4 nM antibody, and 180 nM probe.” for “min.”
as §2, with “Cybio). Fluorescence intensity signal is read after 4 h in a Pherastar FS (BMG Labtech) at 337/665 nm.” for “Cybio).”
For Kd determination, percent probe displacement values are calculated for each compound concentration and plotted against the compound concentration. IC50-like values (corresponding to 50% probe displacement) are calculated using standard fitting algorithms. Since the reporter probe is used at a concentration reflecting its own Kd value, compound Kd values can be calculated according to the Cheng Prusoff equation.
In the table, “A” indicates a Kd value of less than 0.1 μM; “B” a Kd value of between 0.1 μM and 0.5 μM; “C” a Kd value of greater than 0.5 μM and less than or equal to 5.0 μM; and “D” a Kd value of greater than 5.0 μM.

Sequence of HDAC1 (Q13547 whole entry): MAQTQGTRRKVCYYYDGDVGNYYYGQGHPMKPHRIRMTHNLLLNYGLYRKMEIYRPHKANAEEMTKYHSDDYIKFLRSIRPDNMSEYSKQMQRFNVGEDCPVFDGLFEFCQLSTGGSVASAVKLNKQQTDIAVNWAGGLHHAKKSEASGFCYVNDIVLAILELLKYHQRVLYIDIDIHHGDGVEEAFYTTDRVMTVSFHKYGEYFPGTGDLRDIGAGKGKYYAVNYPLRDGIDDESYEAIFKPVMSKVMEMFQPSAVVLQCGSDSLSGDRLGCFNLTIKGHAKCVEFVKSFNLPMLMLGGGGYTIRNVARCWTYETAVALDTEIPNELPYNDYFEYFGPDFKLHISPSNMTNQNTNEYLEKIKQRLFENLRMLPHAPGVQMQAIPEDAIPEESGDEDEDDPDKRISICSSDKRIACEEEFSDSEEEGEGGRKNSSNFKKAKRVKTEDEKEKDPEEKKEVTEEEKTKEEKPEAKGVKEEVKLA

Row | Compound | residence time (HDAC1) | Kd (HDAC1) | residence time (HDAC2 [1]) | Kd (HDAC2 [2])
1 | Nc1ccc(-c2ccncc2)cc1NC(=O)N1Cc2cncnc2C1 [Compound 100] | 470 min | 100 to 500 nM |  | 
2 | Nc1ccc(-c2ccncc2)cc1NC(=O)N1Cc2nccnc2C1 [Compound 101] | 906 min | < 100 nM | 1930 min | 100 to 500 nM
3 | Nc1ccc(-c2ccncc2)cc1NC(=O)N1Cc2ccncc2C1 [Compound 102] | 1240 min | < 100 nM | 1410 min | 100 to 500 nM
4 | Nc1ccc(-c2ccncn2)cc1NC(=O)N1Cc2ccncc2C1 [Compound 103] | 330 min | 500 to 5000 nM | 1960 min | 500 to 5000 nM
5 | CC(C)(C)OC(=O)N1CC2CC1CN2C(=O)Nc1cc(-c2ccncc2)ccc1N (stereo not drawn) [Compound 104] |  | > 5000 nM |  | > 5000 nM
6 | Nc1ccc(-c2ccncc2)cc1NC(=O)N1CC2CCC(C1)O2 [Compound 105] |  | > 5000 nM |  | > 5000 nM
7 | CC(C)(C)OC(=O)N1C2CCC1CN(C(=O)Nc1cc(-c3ccncc3)ccc1N)C2 [Compound 106] |  | > 5000 nM |  | > 5000 nM
8 | CC(=O)N1C2CCC1CN(C(=O)Nc1cc(-c3ccncc3)ccc1N)C2 [Compound 107] |  | > 5000 nM |  | > 5000 nM
9 | CC(=O)N1CC2CC1CN2C(=O)Nc1cc(-c2ccncc2)ccc1N (stereo not drawn) [Compound 108] |  | > 5000 nM |  | > 5000 nM
10 | CC(=O)N1C2CCC1CN(C(=O)Nc1cc(-c3ccncc3)ccc1N)C2 [Compound 109] |  | > 5000 nM |  | > 5000 nM
11 | CC(C)(C)OC(=O)N1C2CCC1CN(C(=O)Nc1cc(-c3ccncc3)ccc1N)C2 [Compound 110] |  | > 5000 nM |  | > 5000 nM
12 | Nc1ccc(-c2ccc(F)cc2)cc1NC(=O)N1CC2CCC(C1)O2 [Compound 111] | 34 min | > 5000 nM | 61 min | > 5000 nM
13 | CC(C)(C)OC(=O)N1C2CCC1CN(C(=O)Nc1cc(-c3ccc(F)cc3)ccc1N)C2 [Compound 112] | 9 min | > 5000 nM | 38 min | > 5000 nM
14 | Nc1ccc(-c2ccc(F)cc2)cc1NC(=O)N1CC2CCC(C1)N2 [Compound 113] |  | > 5000 nM |  | > 5000 nM
15 | Nc1ccc(-c2ccc(F)cc2)cc1NC(=O)N1CC2CNCC2C1 (stereo not drawn) [Compound 114] | 127 min | > 5000 nM | 1470 min | 500 to 5000 nM
16 | CN1CC2CN(C(=O)Nc3cc(-c4ccncc4)ccc3N)CC2C1=O (stereo not drawn) [Compound 115] | 98 min | 500 to 5000 nM |  | 500 to 5000 nM
17 | CC(=O)N1C2CCC1CN(C(=O)Nc1cc(-c3ccc(F)cc3)ccc1N)C2 [Compound 116] | 16 min | > 5000 nM | 30 min | > 5000 nM
18 | Nc1ccc(-c2ccc(F)cc2)cc1NC(=O)N1CC2CCC(C1)N2C=O [Compound 117] | 29 min | > 5000 nM | 36 min | 500 to 5000 nM
19 | Nc1ccc(-c2ccc(F)cc2)cc1NC(=O)N1CCC2(CCNC2)CC1 [Compound 118] | 1180 min | < 100 nM | 636 min | 100 to 500 nM
20 | Nc1ccc(-c2ccc(F)cc2)cc1NC(=O)N1Cc2nccnc2C1 [Compound 119] | 1500 min | 100 to 500 nM | 2150 min | 100 to 500 nM

Row | Compound | residence time (HDAC1) | Kd (HDAC1) | residence time (HDAC2 [1]) | Kd (HDAC2 [2])
21 | CNC(=O)N1CC2CN(C(=O)Nc3cc(-c4ccc(F)cc4)ccc3N)CC2C1 (stereo not drawn) [Compound 120] | 1550 min | < 100 nM | 2360 min | 100 to 500 nM
22 | NCC(=O)N1CC2CN(C(=O)Nc3cc(-c4ccc(F)cc4)ccc3N)CC2C1 (stereo not drawn) [Compound 121] | 587 min | 100 to 500 nM | 869 min | 500 to 5000 nM
23 | Nc1ccc(-c2ccc(F)cc2)cc1NC(=O)c1cn2c(n1)CNCC2 [Compound 122] | 1480 min | < 100 nM | 1950 min | 100 to 500 nM
24 | Nc1ccc(-c2ccncc2)cc1NC(=O)c1cn2c(n1)CNCC2 [Compound 123] | 1050 min | 100 to 500 nM | 1610 min | 100 to 500 nM
25 | CC(C)(C)OC(=O)N1CC2CN(C(=O)Nc3cc(-c4ccc(F)cc4)ccc3N)CC2C1 (stereo not drawn) [Compound 124] | 584 min | 100 to 500 nM | 1790 min | 100 to 500 nM
26 | Nc1ccc(-c2ccc(F)cc2)cc1NC(=O)N1CC2CN(C(=O)C3CC3)CC2C1 (stereo not drawn) [Compound 125] | 788 min | < 100 nM | 1410 min | 100 to 500 nM
27 | Nc1ccc(-c2ccc(F)cc2)cc1NC(=O)N1CC2CN(C3COC3)CC2C1 (stereo not drawn) [Compound 126] | 937 min | < 100 nM | 2620 min | 100 to 500 nM
28 | Nc1ccc(-c2ccc(F)cc2)cc1NC(=O)N1CCC2(CC1)COC2 [Compound 127] | 1520 min | < 100 nM | 2540 min | 100 to 500 nM
29 | N#CC1CCc2nc(C(=O)Nc3cc(-c4ccc(F)cc4)ccc3N)cn2C1 (stereo not drawn) [Compound 128] | 1730 min | < 100 nM | 1500 min | 100 to 500 nM
30 | Nc1ccc(-c2ccncc2)cc1NC(=O)N1CC2CN(C3COC3)CC2C1 (stereo not drawn) [Compound 129] | 724 min | < 100 nM | 1700 min | 100 to 500 nM
31 | Nc1ccc(-c2ccc(Cl)cc2)cc1NC(=O)N1Cc2ccncc2C1 [Compound 130] | 1080 min | < 100 nM | 1300 min | 100 to 500 nM
32 | Nc1ccc(-c2ccc(F)c(F)c2)cc1NC(=O)c1cn2c(n1)CNCC2 [Compound 131] | 695 min | 100 to 500 nM | 1200 min | 100 to 500 nM
33 | Nc1ccc(-c2ccc(C(F)(F)F)cc2F)cc1NC(=O)N1Cc2ccncc2C1 [Compound 132] | 47 min | 500 to 5000 nM | 111 min | 500 to 5000 nM
34 | Nc1ccc(-c2ccc(F)cc2F)cc1NC(=O)N1Cc2ccncc2C1 [Compound 133] | 1300 min | < 100 nM | 1460 min | 100 to 500 nM
35 | Nc1ccc(-c2cccnc2)cc1NC(=O)N1Cc2ccncc2C1 [Compound 134] | 192 min | 100 to 500 nM | 790 min | 100 to 500 nM
36 | Nc1ccc(-c2ccc(F)c(F)c2)cc1NC(=O)N1Cc2ccncc2C1 [Compound 135] | 353 min | 100 to 500 nM | 1210 min | 100 to 500 nM
37 | COCCN1CCC2(CCN(C(=O)Nc3cc(-c4ccncc4)ccc3N)CC2)C1 [Compound 136] | 941 min | < 100 nM | 1540 min | 100 to 500 nM
38 | Nc1ccc(-c2ccc(F)c(F)c2)cc1NC(=O)N1Cc2nccnc2C1 [Compound 137] | 552 min | 100 to 500 nM | 1380 min | 100 to 500 nM
39 | Cc1cc(F)ccc1-c1ccc(N)c(NC(=O)N2Cc3ccncc3C2)c1 [Compound 141] | 1350 min | > 5000 nM |  | > 5000 nM
40 | Nc1ccc(-c2ccc(F)c(Cl)c2)cc1NC(=O)N1Cc2ccncc2C1 [Compound 163] |  | 100 to 500 nM |  | 500 to 5000 nM
